# From patent publication US20090197880A1 (Genelabs Technologies, Inc., priority 2007, published 2009)
# Assay: HCV replicon assay (luciferase) in ET (Huh-lucubineo-ET) cell line
# Format: cell-based
# Conditions: Hepatitis C virus; tested at 5 μM; inhibition of replication relative to no compound control; ET replicon cells, luciferase 48-72 hours
# Text: A cell line, ET (Huh-lucubineo-ET) was used for screening of compounds, or pharmaceutically acceptable salts or solvates, described herein for inhibition of HCV RNA dependent RNA polymerase. The ET cell line was stably transfected with RNA transcripts harboring a I389luc-ubi-neo/NS3-3′/ET; replicon with firefly luciferase-ubiquitin-neomycin phosphotransferase fusion protein and EMCV-IRES driven NS3-5B polyprotein containing the cell culture adaptive mutations (E1202G; T1280I; K1846T) (Krieger at al, 2001 and unpublished). The ET cells were grown in DMEM, supplemented with 10% fetal calf serum, 2 mM Glutamine, Penicillin (100 IU/mL)/Streptomycin (100 μg/mL), 1× nonessential amino acids, and 250 μg/mL G418 (“Geneticin”). They were all available through Life Technologies (Bethesda, Md.). The cells were plated at 0.5−1.0×10^4 cells/well in the 96 well plates and incubated for 24 hrs before adding the test compounds. […] Luciferase activity was measured 48-72 hours later by adding a lysis buffer and the substrate (Catalog number Glo-lysis buffer E2661 and Bright-Glo luciferase system E2620 Promega, Madison, Wis.). Cells should not be too confluent during the assay. Percent inhibition of replication was plotted relative to no compound control. Under the same condition, cytotoxicity of the compounds was determined using cell proliferation reagent, WST-1 (Roche, Germany). The compounds showing antiviral activities, but no significant cytotoxicities were chosen to determine the EC50 and TC50, the effective concentration and toxic concentration at which 50% of the maximum inhibition is observed. For these determinations, 6 dilutions of each compound were used. Compounds were typically diluted 3 fold to span a concentration range of 250 fold. EC50 and similarly TC50 values were calculated by fitting % inhibition at each concentration to the following equation:
# % inhibition=100%/[(EC50/[I])^b+1]
# where b is Hill's coefficient.
row,SMILES,inhibition at 5 µM [%]
1,"CC(C)Oc1ccc(-c2cc(Cn3cc4nc(-c5ccccc5F)nc-4cn3)on2)cc1 [Compound 112, 2-(2-Fluoro-phenyl)-5-[3-(4-isopropoxy-phenyl)-isoxazol-5-ylmethyl]-5H-imidazo[4,5-d]pyridazine]",80.9
2,"CCCCOc1ccc(-c2cc(Cn3cc4nc(-c5ccccc5F)nc-4cn3)on2)cc1 [Compound 106, 5-[3-(4-Butoxy-phenyl)-isoxazol-5-ylmethyl]-2-(2-fluoro-phenyl)-5H-imidazo[4,5-d]pyridazine]",99.3

# Same assay, conditions: Hepatitis C virus; tested at 10 μM; inhibition of replication relative to no compound control; ET replicon cells, luciferase 48-72 hours; read-out: % inhition at 10 μM
row,SMILES,inhibition at 10 µM [%]
1,"Fc1cc(C(F)(F)F)ccc1-c1cc(Cn2cc3nc(-c4cccc(F)c4F)nc-3cn2)on1 [Compound 203, 2-(2,3-Difluoro-phenyl)-5-[3-(2-fluoro-4-trifluoromethyl-phenyl)-isoxazol-5-ylmethyl]-5H-imidazo[4,5-d]pyridazine]",99.6
2,"CCCCOc1ccc(-c2cc(Cn3cc4nc(-c5cccc(F)c5F)nc-4cn3)on2)cc1 [Compound 222, 5-[3-(4-Butoxy-phenyl)-isoxazol-5-ylmethyl]-2-(2,3-difluoro-phenyl)-5H-imidazo[4,5-d]pyridazine]",98.2
3,"CCCCc1ccc(-c2cc(Cn3cc4nc(-c5cccc(F)c5F)nc-4cn3)on2)cn1 [Compound 301, 5-[3-(6-Butyl-pyridin-3-yl)-isoxazol-5-ylmethyl]-2-(2,3-difluoro-phenyl)-5H-imidazo[4,5-d]pyridazine]",97.3
4,"CCOc1ccc(-c2cc(Cn3cc4nc(-c5cccc(F)c5F)nc-4cn3)on2)cc1 [Compound 220, 2-(2,3-Difluoro-phenyl)-5-[3-(4-ethoxy-phenyl)-isoxazol-5-ylmethyl]-5H-imidazo[4,5-d]pyridazine]",99.7
5,"Cc1ccc(-c2cc(Cn3cc4nc(-c5cccc(F)c5F)nc-4cn3)on2)cc1 [Compound 187, 2-(2,3-Difluoro-phenyl)-5-(3-p-tolyl-isoxazol-5-ylmethyl)-5H-imidazo[4,5-d]pyridazine]",99.7
6,"N#Cc1ccc(-c2cc(Cn3cc4nc(-c5ccccc5F)nc-4cn3)on2)cc1 [Compound 284, 4-{5-[2-(2-Fluoro-phenyl)-imidazo[4,5-d]pyridazin-5-ylmethyl]-isoxazol-3-yl}-benzonitrile]",77.4
7,"FC(F)(F)c1ccc(-c2cc(Cn3cc4nc(-c5ccc6[nH]ccc6c5)nc-4cn3)on2)c(C(F)(F)F)c1 [Compound 139, 5-[3-(2,4-Bis-trifluoromethyl-phenyl)-isoxazol-5-ylmethyl]-2-(1H-indol-5-yl)-5H-imidazo[4,5-d]pyridazine]",51.1
8,"Fc1cccc(-c2nc3cnn(Cc4cc(-c5ccc(OC(F)(F)F)c(Cl)c5)no4)cc-3n2)c1F [Compound 165, 5-[3-(3-Chloro-4-trifluoromethoxy-phenyl)-isoxazol-5-ylmethyl]-2-(2,3-difluoro-phenyl)-5H-imidazo[4,5-d]pyridazine]",79.4
9,"Cc1nc(-c2cc(Cn3cc4nc(-c5cccc(F)c5F)nc-4cn3)on2)c(C)o1 [Compound 185, 2-(2,3-Difluoro-phenyl)-5-[3-(2,5-dimethyl-oxazol-4-yl)-isoxazol-5-ylmethyl]-5H-imidazo[4,5-d]pyridazine]",47.8
10,"O=[N+]([O-])c1ccc(-c2cc(Cn3cc4nc(-c5cccc(F)c5F)nc-4cn3)on2)cc1 [Compound 199, 2-(2,3-Difluoro-phenyl)-5-[3-(4-nitro-phenyl)-isoxazol-5-ylmethyl]-5H-imidazo[4,5-d]pyridazine]",98.5
11,"Oc1nn(Cc2cc(-c3ccc(C(F)(F)F)cc3C(F)(F)F)no2)cc2nc(-c3cccc(F)c3F)nc1-2 [Compound 262, 6-[3-(2,4-Bis-trifluoromethyl-phenyl)-isoxazol-5-ylmethyl]-2-(2,3-difluoro-phenyl)-6H-imidazo[4,5-d]pyridazin-4-ol]",96.6
12,"CC(=O)OCCCOc1ccc(-c2cc(Cn3cc4nc(-c5cccc(F)c5F)nc-4cn3)on2)cc1 [Compound 272, Acetic Acid 3-(4-{5-[2-(2,3-difluoro-phenyl)-imidazo[4,5-d]pyridazin-5-ylmethyl]-isoxazol-3-yl}-phenoxy)-propyl Ester]",91.1
13,"FC(F)(F)c1ccc(-c2cc(Cn3cc4nc(Nc5ccccc5)nc-4cn3)on2)c(C(F)(F)F)c1 [Compound 248, {5-[3-(2,4-Bis-trifluoromethyl-phenyl)-isoxazol-5-ylmethyl]-5H-imidazo[4,5-d]pyridazin-2-yl}-phenyl-amine]",15.5
14,"Fc1cccc(-c2nc3cnn(Cc4cc(-c5ccc(-c6cnoc6)cc5C(F)(F)F)no4)cc-3n2)c1F [Compound 321, 2-(2,3-Difluoro-phenyl)-5-[3-(4-isoxazol-4-yl-2-trifluoromethyl-phenyl)-isoxazol-5-ylmethyl]-5H-imidazo[4,5-d]pyridazine]",82.5
15,"Cc1cc(CCc2ccc(-c3cc(Cn4cc5nc(-c6cccc(F)c6F)nc-5cn4)on3)cc2)cc(C)n1 [Compound 311, 2-(2,3-Difluoro-phenyl)-5-(3-{4-[2-(2,6-dimethyl-pyridin-4-yl)-ethyl]-phenyl}-isoxazol-5-ylmethyl)-5H-imidazo[4,5-d]pyridazine]",96.7
16,"Fc1cccc(CNc2nc3cnn(Cc4cc(-c5ccc(C(F)(F)F)cc5C(F)(F)F)no4)cc-3n2)c1F [Compound 255, {5-[3-(2,4-Bis-trifluoromethyl-phenyl)-isoxazol-5-ylmethyl]-5H-imidazo[4,5-d]pyridazin-2-yl}-(2,3-difluoro-benzyl)-amine]",4.67
17,"CCCOC(=O)c1cc(-c2cc(Cn3cc4nc(-c5cccc(F)c5F)nc-4cn3)on2)ccc1OCCC [Compound 197, 5-{5-[2-(2,3-Difluoro-phenyl)-imidazo[4,5-d]pyridazin-5-ylmethyl]-isoxazol-3-yl}-2-propoxy-benzoic acid propyl ester]",54.1
18,"FC(F)(F)c1ccc(-c2cc(Cn3cc4nc(-c5cccs5)nc-4cn3)on2)c(C(F)(F)F)c1 [Compound 143, 5-[3-(2,4-Bis-trifluoromethyl-phenyl)-isoxazol-5-ylmethyl]-2-thiophen-2-yl-5H-imidazo[4,5-d]pyridazine]",96.1
19,"Fc1cccc(-c2nc3cnn(Cc4cc(-c5ccc(OC(F)(F)F)cc5)on4)cc-3n2)c1F [Compound 242, 2-(2,3-Difluoro-phenyl)-5-[5-(4-trifluoromethoxy-phenyl)-isoxazol-3-ylmethyl]-5H-imidazo[4,5-d]pyridazine]",97
20,"Fc1ccccc1-c1nc2cnn(Cc3cc(-c4ccc(C(F)(F)F)cc4)no3)cc-2n1 [Compound 278, 2-(2-Fluoro-phenyl)-5-[3-(4-trifluoromethyl-phenyl)-isoxazol-5-ylmethyl]-5H-imidazo[4,5-d]pyridazine]",99.7
21,"CC(C)(c1cc(-c2ccc(C(F)(F)F)cc2C(F)(F)F)no1)n1cc2nc(-c3cccc(F)c3F)nc-2cn1 [Compound 227, 5-{1-[3-(2,4-Bis-trifluoromethyl-phenyl)-isoxazol-5-yl]-1-methyl-ethyl}-2-(2,3-difluoro-phenyl)-5H-imidazo[4,5-d]pyridazine]",97.9
22,"CCCCc1ccc(-c2cc(Cn3cc4nc(-c5cccc(F)c5F)nc-4cn3)on2)cc1 [Compound 201, 5-[3-(4-Butyl-phenyl)-isoxazol-5-ylmethyl]-2-(2,3-difluoro-phenyl)-5H-imidazo[4,5-d]pyridazine]",100
23,"CC(C)Oc1ccc(-c2cc(Cn3cc4nc(-c5ccccc5F)nc-4cn3)on2)cc1 [Compound 112, 2-(2-Fluoro-phenyl)-5-[3-(4-isopropoxy-phenyl)-isoxazol-5-ylmethyl]-5H-imidazo[4,5-d]pyridazine]",85.9
24,"Fc1ccccc1-c1nc2cnn(Cc3cc(-c4ccc(Cl)cc4)on3)cc-2n1 [Compound 239, 5-[5-(4-Chloro-phenyl)-isoxazol-3-ylmethyl]-2-(2-fluoro-phenyl)-5H-imidazo[4,5-d]pyridazine]",95.3
25,"Fc1cccc(-c2nc3cnn(Cc4cc(-c5ccc(CN6CCCC6)cc5)no4)cc-3n2)c1F [Compound 219, 2-(2,3-Difluoro-phenyl)-5-[3-(4-pyrrolidin-1-ylmethyl-phenyl)-isoxazol-5-ylmethyl]-5H-imidazo[4,5-d]pyridazine]",35
26,"COCCOc1ccc(-c2cc(Cn3cc4nc(-c5cccc(F)c5F)nc-4cn3)on2)c(C(F)(F)F)c1 [Compound 320, 2-(2,3-Difluoro-phenyl)-5-{3-[4-(2-methoxy-ethoxy)-2-trifluoromethyl-phenyl]-isoxazol-5-ylmethyl}-5H-imidazo[4,5-d]pyridazine]",99.8
27,"Fc1ccccc1-c1nc2cnn(Cc3cc(-c4ccc(I)cc4)no3)cc-2n1 [Compound 282, 2-(2-Fluoro-phenyl)-5-[3-(4-iodo-phenyl)-isoxazol-5-ylmethyl]-5H-imidazo[4,5-d]pyridazine]",83.4
28,"FC(F)(F)c1ccc(-c2cc(Cn3cc4nc(N5CCc6ccccc6C5)nc-4cn3)on2)c(C(F)(F)F)c1 [Compound 257, 2-{5-[3-(2,4-Bis-trifluoromethyl-phenyl)-isoxazol-5-ylmethyl]-5H-imidazo[4,5-d]pyridazin-2-yl}-1,2,3,4-tetrahydro-isoquinoline]",0.87
29,"CCCCOc1ccc(-c2cc(Cn3cc4nc(-c5ccccc5F)nc-4cn3)on2)cc1 [Compound 106, 5-[3-(4-Butoxy-phenyl)-isoxazol-5-ylmethyl]-2-(2-fluoro-phenyl)-5H-imidazo[4,5-d]pyridazine]",99.7
